Data: PMC9815544, “Discovery of potent and noncovalent KRAS^G12D inhibitors: Structure-based virtual screening and biological evaluation” (Frontiers in Pharmacology, 2022)
Read-outs that look alike come from different tables or passages of the source.

What was measured:
[1] = test system: Panc 04.03 cells; test: MTT cell proliferation assay; type: cell-based; settings: Homo sapiens, 72 h treatment
Experimental: According to the previously reported method ([Yang et al., 2019]), the human pancreatic cancer cell line (Panc 04.03) was seeded at the density of 2.4 × 10^4 on 96-well plates. After incubation at 37°C with 5% CO2 for 24 h, the cells were incubated with different concentrations of inhibitors under the same conditions. After 72 h, MTT (0.5 mg/ml, 100 μl) was added after the supernatant was discarded. Then keep the 96-well plate at 37°C for 4 h. After that, abandon the medium and inject 200 μl of dimethyl sulfoxide (DMSO) into each well. The spectrophotometric absorbance of the sample at 570 nm was measured using a Synergy 4 Microplate Reader (BioTek Instruments Inc., United States). All of the compounds were tested three times in each of the cells.

[2] = molecular target: T1, KRAS^G12D (Homo sapiens, UniProt P01116, G12D); test: Microscale thermophoresis (MST) binding assay; settings: room temperature
T1 construct: purchased Abcam
T1 sequence (P01116 1-188 isoform P01116-2 G12D): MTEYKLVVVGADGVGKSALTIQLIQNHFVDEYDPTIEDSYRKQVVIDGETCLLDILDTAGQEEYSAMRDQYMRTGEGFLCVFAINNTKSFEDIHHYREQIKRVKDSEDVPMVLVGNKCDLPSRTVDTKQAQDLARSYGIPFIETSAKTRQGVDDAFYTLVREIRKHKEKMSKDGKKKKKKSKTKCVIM
Experimental: MST is an effective method to evaluate biomolecular interactions and has been used to study the interactions between binding partners of different molecular sizes ([Wienken et al., 2010]; [Seidel et al., 2013]). According to the previously reported method to measure the interaction between small molecule inhibitors and KRAS^G12D protein, the MST assay was performed using Monolith NT.115 instrument (NanoTemp Technologies, GmbH, Munich, Germany) ([Wienken et al., 2010]). The red fluorescent dye was used for KRAS^G12D fluorescent labeling. Small molecule inhibitors were diluted 1:1 and titrated. The binding buffer (50 mM Tris, 230 mM NaCl) was added to the dilution curve of the small molecule inhibitors and the labeled protein. The final sample was centrifuged at 13,000 rpm for 10 min, and then filled into the capillary tube for MST analysis with 20% LED power and 50% MST power at room temperature. The equilibrium dissociation constant (K d) was calculated using Nano Temper Analysis software.

[3] = molecular target: T1, KRAS^G12D; settings: known inhibitor, Figure 1, cited from earlier work
[4] = test system: Panc 04.03 xenograft tumors; test: In vivo anticancer activity, Panc 04.03 xenograft; parameters: species or system BALB/c nude mice; settings: 3 and 10 mg/kg intraperitoneal every 4 days, five times, 20 days, vs vehicle
Experimental: Based on previously reported protocols for investigating inhibition in vivo ([Zhou et al., 2022]), we injected Panc 04.03 cells (200 μl, 1 × 10^7 cells) in the subdermal space on the right flank of 6-week-old BALB/c nude mice (Changzhou Cavens Laboratory Animal Co., Ltd, China). All experimental protocols were approved by the Animal Ethics Committee of China Pharmaceutical University (Ethic approval number: 2022–11–001). Once tumors grew to 80–100 mm^3, mice were randomly divided into three groups (5 mice per group) and intraperitoneally administered with vehicle, hit compound 3 (3 mg/kg) and hit compound 3 (10 mg/kg) every 4 days for a total of five times. Tumor volume and body weight were measured every 4 days. Tumor volume was calculated using the formula (c × c × d)/2 (c, the smallest diameter; d, the largest diameter).

Compound	IC50 [1]	Kd [2]	other results
Oc1cc(-c2ncc3c(N4CC5CCC(C4)N5)nc(OCCNC4CCCCC4)nc3c2F)c2c(Cl)cccc2c1 [Hit compound 4]	146 nM	0.76 ± 0.11 nM	
C#Cc1c(F)ccc2cc(O)cc(-c3ncc4c(N5CC6CCC(C5)N6)nc(OCC(C)NC(F)(F)F)nc4c3F)c12 (stereo not shown) [Hit compound 1]	212 nM	0.98 ± 0.09 nM	
C#Cc1c(F)ccc2cc(O)cc(-c3ncc4c(N5CC6CCC(C5)N6)nc(OCC5CCCN5CC5CC5)nc4c3F)c12 (stereo not shown) [Hit compound 2]	90 nM	0.46 ± 0.08 nM	
NC1(C(=O)NCCCn2cc(-c3ccc(OC(F)(F)F)cc3)c3cc(CN4CCN(Cc5c(Cl)cccc5Cl)CC4)ccc32)CCNCC1 [compound 3144]			IC50 ([3]; ref Welsch et al., 2017): 3800 nM
Oc1cc(-c2ncc3c(N4CC5CCC(C4)N5)nc(OCC4CCCN4CCC4CCCC4)nc3c2F)c2c(Cl)cccc2c1 (stereo not shown) [Hit compound 3]	43.8 nM	0.13 ± 0.05 nM	Tumor growth (tumor volume) of Panc 04.03 xenograft [4]: significantly inhibited
Cn1cnc(Cn2ccc3ccc(CNCc4[nH]c5ccccc5c4[C@H]4NC(=O)c5ccc(O)cc54)cc32)c1 [BI-2852]			IC50 ([3]; ref Kessler et al., 2019): 6700 nM
Cc1cccc2cccc(N3CCc4c(nc(OCC5CCCN5C)nc4N4CC5CCC(C4)N5)C3)c12 (stereo not shown) [TH-Z835, reference compound]	> 300 nM		IC50 ([3]; ref Mao et al., 2022): 1600 nM
